Laboratory results as given in US6194451A, “Matrix metalloproteinase inhibitors” (Pharmacia & Upjohn S.p.A., priority 1997, dated 2001).

Tests used:
[1] = molecular target: T1, MMP-2 (human gelatinase A) (Homo sapiens, UniProt P08253); assay: Biochemical Assay (Protocol A): inhibition of human gelatinase A, fluorimetric peptide substrate; details: MMP-2, pH 7.4, 37° C.
T1 sequence (P08253 110-660): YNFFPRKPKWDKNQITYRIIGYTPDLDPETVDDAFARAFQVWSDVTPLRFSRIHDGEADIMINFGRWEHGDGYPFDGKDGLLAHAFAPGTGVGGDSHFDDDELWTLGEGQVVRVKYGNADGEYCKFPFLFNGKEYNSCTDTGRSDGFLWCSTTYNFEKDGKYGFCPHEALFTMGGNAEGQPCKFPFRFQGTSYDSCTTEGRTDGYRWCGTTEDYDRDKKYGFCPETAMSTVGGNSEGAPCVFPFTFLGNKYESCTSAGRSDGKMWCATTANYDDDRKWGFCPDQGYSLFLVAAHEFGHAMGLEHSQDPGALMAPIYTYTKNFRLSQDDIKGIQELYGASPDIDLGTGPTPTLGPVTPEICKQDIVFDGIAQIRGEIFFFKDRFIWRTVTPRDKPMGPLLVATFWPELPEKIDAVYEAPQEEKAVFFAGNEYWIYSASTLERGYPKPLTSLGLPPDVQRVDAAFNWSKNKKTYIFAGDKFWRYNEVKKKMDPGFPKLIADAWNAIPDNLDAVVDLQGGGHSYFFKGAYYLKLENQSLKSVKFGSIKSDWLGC
Text: (§1) As mentioned above, although low molecular weight MMP inhibitors, including hydroxamates of general formula (A), are already known, there is a strong need for better and diversified molecules for their use in medicine, that is in particular in the control or prevention of degenerative joint diseases such as rheumatoid arthritis and osteoarthritis, or in the management of multiple sclerosis, or in the treatment of invasive tumors. […] For example, the following protocol was used to assess the biochemical activity of compounds of formula (I) against MMP-1, MMP-2, and MMP-3 (respectively, human interstitial collagenase, gelatinase A, and stromelysin-1).
(§2) Human gelatinase-A (MMP-2) was obtained as pro-enzyme (72 kDa) and was activated with 1 mM 4-aminophenylmercuric acetate for 30 min at 37° C. immediately prior to use. Human stromelysin-1 (MMP-3) was obtained as a recombinant pro-enzyme isolated either from E. coli or from baculovirus infected Sf9 insect cells and activated either by heat (1 h, 55° C.) or by 5 mg/l trypsin (30 min, 37° C.) before addition of soybean trypsin inhibitor, finally removed by centrifugation.
(§3) All enzyme assays to determine values of the enzyme-inhibitor dissociation constants were performed using the peptide substrate (7-methoxycoumarin-4-yl)Acetyl-Pro-Leu-Gly-Leu-(3-[2,4-dinitrophenyl]-L-2,3-diaminopropionyl)-Ala-Arg-NH2 (Mca-Pro-Leu-Gly-Leu-Dpa-Ala-Arg--NH2) (C. G. Knight et al., FEBS Lett. 296:263-266, 1992). The enzymes cleave at the Gly-Leu bond removing the internally quenching Dpa group. The release of the highly fluorescent peptide Mca-Pro-Leu was followed fluorimetrically setting the excitation wavelength at 326 nm (bandwidth 5 nm) and the emission at 392 nm (bandwidth 20 nm).
(§4) Continuous fluorescence assay was carried out using a Perkin Elmer LS-50 Fluorescence Spectrophotometer fitted with a thermostatted four position stirring cell changer. Inhibitors were dissolved in the assay buffer ([…] Tris/HCl pH 7.4 containing 0.15 M NaCl, 10 mM CaCl2, 0.01 mM ZnCl2 and 0.05% Brij 35) thermostatted at 37° C. The reaction was started by the addition of substrate ([…]), followed by the addition of the enzyme (e.g. 1.0 nM collagenase, 0.04 nM gelatinase, or 3.0 nM stromelysin) and the increase in fluorescence was monitored over 30 min. The run was repeated at different concentrations of inhibitors in the range 0.1-10000 nM and data at inhibitor concentration in the region if their enzyme-inhibitor dissociation constants were used for calculation.
(§5) Substrate consumption was within 5% of the initial concentration and data outside this range were discarded. The Michaelis constants (Km) for the enzyme-substrate complexes is […] or greater (C. G. Knight et al., reference above), so that the factor (1+S/Km) can be approximated to unity without appreciable error.

[2] = test system: Human DU145 Prostatic Carcinoma cells; assay: Antitumor Efficacy Assay (Protocol D): DU145 tumor growth inhibition in Balb nu/nu mice; format: in vivo, human tumor in Balb nu/nu mice; details: 100 mg/kg b.i.d., i.p., day +1 to day +20; p<0.01, Dunnett method
Text: The novel compounds of formula (I) can be used in a method of treatment of the human or animal body by therapy. The condition of a human or animal patient may thus be improved. In particular, compounds the present invention can be used to limit the local growth of established tumors, and to limit growth of secondary metastases. The following protocol was used to evaluate the antitumoral efficacy in vivo of the compounds of the present invention:
Human DU145 Prostatic Carcinoma cells (2×10^6) were injected subcutaneously at day 0 in Balb nu/nu mice. Treatment with inhibitor (i.p. injection) started at day +1 and terminated at day +20. Animal were sacrificed at day +21, and the tumors exised and weighted. Percent tumor growth inhibition vs. control mice (% TGI) was calculated as follows:
% TGI=100-(Mean Tumor Weight in treated group)/(Mean Tumor Weight in […]

[3] = Pharmacokinetic Assay (Protocol C): plasma levels after i.v. and oral administration to rats; format: in vivo, rat (male Sprague-Dawley); details: 15 mg/kg
Method: Male rats (Sprague-Dawley; body weight about 250-300 g) were acclimatized for about one week before the start of the study. […] Before treatment, rats were overnight fasted. For each compound to be assessed, three rats were treated intravenously (injection in the tail vein as a bolus) with a single dose of 15 mg/kg (as free base or free acid if needed) body weight. Other three rats were treated orally (single bolus dose by gastric gavage) with 15 mg/kg of the same compound. In same cases, according to the detection limit of each particular compound, and its availability in stock, these standard doses were modified as needed.
Blood samples were collected into syringes especially prepared for use with the cannulated animals via the SCV cannula. Under standard conditions, blood samples (0.2 mL) were transferred into heparinized tubes at the following times: 0 (pre-dose), 2, 4, 8, 16, 30, 45, 60, 90 min, 2, 4, 6, 8 and 24 h after iv administration; 0 (pre-dose), 5, 10, 30, 45, 60, 90 min, 2, 4, 6, 8, and 24 h after oral administration. Plasma was obtained immediately by centrifugation (about 10,000 rpm for 3 min) and stored at -80° C. till analysis. Plasma samples were assayed for parent drug concentrations using an appropriate analytical method. Under standard conditions, liquid chromatography--tandem mass spectrometry (LC/MS-MS) was used.
Non-compartmental pharmacokinetic calculations were performed with the aid of Pharm-NCA package (SIMED, France). Maximum plasma concentration, Cmax, and the corresponding time, tmax, were read as the coordinates of the highest raw-data point for individual plasma profiles. Terminal phase was evaluated by graphic judgement by eye; terminal rate constant, was calculated as the slope of the terminal linear portion of natural log-transformed plasma concentrations vs. time curve, obtained using linear regression. Terminal half-life, t1/2,z, was calculated as ln(2)/lz. The area under the plasma concentration-time curve was estimated by the linear trapezoidal rule up to the last measured concentration (AUC(0-tz)) and extrapolated to infinity assuming monoexponential decay, using the formula AUC=AUC(0-tz)+C(tz)/lz, where C(tz) is the measured concentration of the last point with detectable concentration. Following iv dosing, systemic clearance was obtained using the formula Cl=Dose/AUC. According to Protocol C, the pharmacokinetic in rats of some representative compounds within the present invention was evaluated. Significant pharmacokinetic data obtained in rats at a 15 mg/kg dose were as follows: […]

[4] = molecular target: T2, MMP-1 (human interstitial collagenase) (Homo sapiens, UniProt P03956); assay: Biochemical Assay (Protocol A): inhibition of human collagenase, fluorimetric peptide substrate; details: MMP-1, pH 7.4, 37° C.
T2 construct: truncated recombinant enzyme encompassing residues 101-269
T2 sequence (P03956 101-269): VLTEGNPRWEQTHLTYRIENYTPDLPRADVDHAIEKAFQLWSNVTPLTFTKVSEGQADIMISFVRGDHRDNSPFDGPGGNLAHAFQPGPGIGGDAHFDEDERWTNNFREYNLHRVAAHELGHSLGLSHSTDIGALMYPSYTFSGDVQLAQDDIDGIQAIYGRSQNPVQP
Text: as §1, §2, §3, §4, §5

[5] = molecular target: T3, MMP-3 (human stromelysin-1) (Homo sapiens, UniProt P08254); assay: Biochemical Assay (Protocol A): inhibition of human stromelysin-1, fluorimetric peptide substrate; details: MMP-3, pH 7.4, 37° C.
T3 construct: host or cells: E. coli or baculovirus-infected Sf9 insect cells
Text: as §1, §2, §3, §4, §5

T3 sequence (P08254 100-477): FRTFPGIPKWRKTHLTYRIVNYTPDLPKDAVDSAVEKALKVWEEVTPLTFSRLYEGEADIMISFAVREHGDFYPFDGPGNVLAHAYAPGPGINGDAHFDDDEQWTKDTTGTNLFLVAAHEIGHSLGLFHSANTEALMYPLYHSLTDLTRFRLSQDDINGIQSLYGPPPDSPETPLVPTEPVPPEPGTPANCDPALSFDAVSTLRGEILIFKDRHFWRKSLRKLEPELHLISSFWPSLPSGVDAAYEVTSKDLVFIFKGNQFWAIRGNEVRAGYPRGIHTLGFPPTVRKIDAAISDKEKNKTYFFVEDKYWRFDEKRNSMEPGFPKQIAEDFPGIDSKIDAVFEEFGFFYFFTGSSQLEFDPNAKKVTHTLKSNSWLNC

Ki [1]: 3.2 nM
AUC iv ([3]; iv): 1.35 mg·min/mL
half-life ([3]; rat, plasma, terminal half-life, read-out: t1/2,z (converted)): 2.3 h
clearance ([3]; rat, plasma, iv): 11 mL/min/kg
AUC ([3]; rat, plasma, oral): 1330 ng·h/mL
Ki [4]: 1.5 nM
Ki [5]: 23 nM
Compound: CNC(=O)[C@@H](NC(=O)[C@H](CC(C)C)[C@](O)(COC(=O)NC1CCCCC1)C(=O)NO)C(C)(C)C [Example 16, [(2R,3S)-3-(N-Cyclohexylaminocarbonyl)oxymethyl-3-hydroxy-4-hydroxyamino-2-isobutylsuccinyl]-L-tert-leucine-N-methylamide]
TGI (percent tumor growth inhibition vs. control) [2]: 83%
plasma clearance compared with literature hydroxamic acid MMP inhibitors ([3]; to our best knowledge): inferior to that reported for any hydroxamic acid MMP inhibitor disclosed in the literature
